According to BindingDB's records for patent US12384786 (Minghui Pharmaceutical (Shanghai), 2025):

Assays:
[1] = target: Tyrosine-protein kinase BTK [C481S] (Homo sapiens, UniProt Q06187, C481S); test: Biochemical Evaluation
[2] = target: Tyrosine-protein kinase BTK (Homo sapiens, UniProt Q06187); test: Biochemical Evaluation
Tyrosine-protein kinase BTK, sequence (Q06187 whole entry): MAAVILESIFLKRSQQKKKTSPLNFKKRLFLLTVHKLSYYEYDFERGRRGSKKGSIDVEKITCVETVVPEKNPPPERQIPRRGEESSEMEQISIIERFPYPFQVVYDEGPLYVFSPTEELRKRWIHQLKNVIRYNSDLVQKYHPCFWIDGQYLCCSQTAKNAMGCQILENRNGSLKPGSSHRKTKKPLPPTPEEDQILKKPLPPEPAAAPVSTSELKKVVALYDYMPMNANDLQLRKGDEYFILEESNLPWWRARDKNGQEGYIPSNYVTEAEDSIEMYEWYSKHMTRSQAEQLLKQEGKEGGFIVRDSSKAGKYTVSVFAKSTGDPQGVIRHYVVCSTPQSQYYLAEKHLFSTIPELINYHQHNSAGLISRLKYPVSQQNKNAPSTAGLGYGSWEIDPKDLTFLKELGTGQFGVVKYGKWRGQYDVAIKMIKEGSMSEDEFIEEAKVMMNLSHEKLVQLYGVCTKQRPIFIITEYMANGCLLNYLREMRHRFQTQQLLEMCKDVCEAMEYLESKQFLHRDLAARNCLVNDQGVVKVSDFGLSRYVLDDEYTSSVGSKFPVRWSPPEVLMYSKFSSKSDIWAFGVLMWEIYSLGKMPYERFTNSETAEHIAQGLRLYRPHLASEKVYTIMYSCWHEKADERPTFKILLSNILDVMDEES

Tyrosine-protein kinase BTK [C481S], sequence (Q06187 2-659 C481S limits assumed): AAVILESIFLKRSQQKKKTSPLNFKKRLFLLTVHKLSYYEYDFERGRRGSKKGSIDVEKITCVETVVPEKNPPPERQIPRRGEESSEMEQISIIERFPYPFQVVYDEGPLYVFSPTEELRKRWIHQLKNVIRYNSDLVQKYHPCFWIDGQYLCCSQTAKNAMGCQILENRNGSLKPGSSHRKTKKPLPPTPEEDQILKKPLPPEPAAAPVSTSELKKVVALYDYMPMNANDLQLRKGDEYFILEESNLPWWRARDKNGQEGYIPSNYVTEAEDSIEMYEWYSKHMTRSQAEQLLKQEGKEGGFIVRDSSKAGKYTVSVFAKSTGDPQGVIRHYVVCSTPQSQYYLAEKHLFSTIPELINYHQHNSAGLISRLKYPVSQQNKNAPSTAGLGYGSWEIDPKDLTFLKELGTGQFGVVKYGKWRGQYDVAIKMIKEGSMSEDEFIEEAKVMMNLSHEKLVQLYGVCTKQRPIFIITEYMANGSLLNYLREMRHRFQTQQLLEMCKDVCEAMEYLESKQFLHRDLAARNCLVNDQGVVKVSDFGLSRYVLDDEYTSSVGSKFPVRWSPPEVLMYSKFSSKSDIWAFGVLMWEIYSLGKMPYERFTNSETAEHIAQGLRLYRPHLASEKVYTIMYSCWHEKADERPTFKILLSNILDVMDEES

`Nc1ncnc2c1c(-c1ccc(Oc3ccccc3)cc1)nn2[C@H]1CC[C@@H](O)CC1` [US12384786, Example 8A] was tested, and the IC50 [1] was 0.7 nM and the IC50 [2] was 2.5 nM.
